According to ChEMBL document CHEMBL1201862, “PubChem BioAssay data set” (2004):
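Tested at 5 concentrations; 48 h exposure; 96-well plates; endpoints linearly interpolated, else capped at highest concentration. GI50 marks 50% less growth.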 Activity calls are given as the source filed them. No stated cut-off is given here; in the data, active = GI50 up to about 1.1 µM and inactive = higher.

Key:
Assay in all cases: DTP human tumour cell line panel, 48 h
M14 = system: M14
SN12C = system: SN12C
RXF 393 = system: RXF 393
SK-OV-3 = system: SK-OV-3
Hs-578T = system: Hs-578T
COLO 205 = system: COLO 205
SF-539 = system: SF-539
HOP-62 = system: HOP-62
T47D = system: T47D
SF-268 = system: SF-268
NCI-H460 = system: NCI-H460
OVCAR-5 = system: OVCAR-5
EKVX = system: EKVX
LOX IMVI = system: LOX IMVI
DU-145 = system: DU-145
CAKI-1 = system: CAKI-1
HL-60 = system: HL-60
UO-31 = system: UO-31
SW-620 = system: SW-620
HCC 2998 = system: HCC 2998

Cc1cn(C2CC(O)C(COC(N)=O)O2)c(=O)[nH]c1=O (stereo not drawn)
GI50 (M14): > 100 µM (inactive)
GI50 (SN12C): > 100 µM (inactive)
GI50 (RXF 393): > 100 µM (inactive)
GI50 (SK-OV-3): > 100 µM (inactive)
GI50 (Hs-578T): > 100 µM (inactive)
GI50 (COLO 205): > 100 µM (inactive)
GI50 (SF-539): > 100 µM (inactive)
GI50 (HOP-62): > 100 µM (inactive)
GI50 (T47D): > 100 µM (inactive)
GI50 (SF-268): > 100 µM (inactive)
GI50 (NCI-H460): > 100 µM (inactive)
GI50 (OVCAR-5): > 100 µM (inactive)
GI50 (EKVX): > 100 µM (inactive)
GI50 (LOX IMVI): > 100 µM (inactive)
GI50 (DU-145): > 100 µM (inactive)
GI50 (CAKI-1): > 100 µM (inactive)
GI50 (HL-60): > 100 µM (inactive)
GI50 (UO-31): > 100 µM (inactive)
GI50 (SW-620): > 100 µM (inactive)

CN(C)CC(NC(NCS)C(=O)NCCNc1ccc(NCCNC(=O)C(NCS)NC(CN(C)C)OCCl)c2c1C(=O)c1c(O)ccc(O)c1C2=O)OCCl (stereo not drawn)
GI50 (M14): 0.124 µM (active)
GI50 (SN12C): 0.0311 µM (active)
GI50 (SK-OV-3): 0.147 µM (active)
GI50 (Hs-578T): 0.243 µM (active)
GI50 (COLO 205): 1.34 µM (inactive)
GI50 (HCC 2998): 0.237 µM (active)
GI50 (HOP-62): 0.0151 µM (active)
GI50 (T47D): 0.0327 µM (active)
GI50 (SF-268): 0.0557 µM (active)
GI50 (NCI-H460): < 0.001 µM (active)
GI50 (OVCAR-5): 0.525 µM (active)
GI50 (EKVX): 0.228 µM (active)
GI50 (LOX IMVI): 0.0245 µM (active)
GI50 (DU-145): 0.0365 µM (active)
GI50 (CAKI-1): < 0.001 µM (active)
GI50 (UO-31): 0.0331 µM (active)
GI50 (SW-620): 0.00461 µM (active)

C=C(C)CC1(O[Si](C)(C)C)C(=O)C(OCC)=C1OCC (stereo not drawn)
GI50 (M14): > 100 µM (inactive)
GI50 (SN12C): > 100 µM (inactive)
GI50 (SK-OV-3): > 100 µM (inactive)
GI50 (Hs-578T): > 100 µM (inactive)
GI50 (COLO 205): > 100 µM (inactive)
GI50 (SF-539): > 100 µM (inactive)
GI50 (HOP-62): > 100 µM (inactive)
GI50 (T47D): > 100 µM (inactive)
GI50 (SF-268): > 100 µM (inactive)
GI50 (NCI-H460): > 100 µM (inactive)
GI50 (OVCAR-5): > 100 µM (inactive)
GI50 (EKVX): > 100 µM (inactive)
GI50 (LOX IMVI): > 100 µM (inactive)
GI50 (DU-145): > 100 µM (inactive)
GI50 (CAKI-1): > 100 µM (inactive)
GI50 (HL-60): > 100 µM (inactive)
GI50 (UO-31): > 100 µM (inactive)
GI50 (SW-620): > 100 µM (inactive)

O=C1CC(c2ccccc2)C2(C(=O)NC(=S)NC2=O)C(c2ccccc2)C1 (stereo not drawn)
GI50 (M14): > 75 µM (inactive)
GI50 (SN12C): > 75 µM (inactive)
GI50 (RXF 393): > 75 µM (inactive)
GI50 (COLO 205): > 75 µM (inactive)
GI50 (SF-539): > 75 µM (inactive)
GI50 (HCC 2998): > 75 µM (inactive)
GI50 (HOP-62): > 75 µM (inactive)
GI50 (T47D): > 75 µM (inactive)
GI50 (SF-268): > 75 µM (inactive)
GI50 (NCI-H460): > 75 µM (inactive)
GI50 (OVCAR-5): > 75 µM (inactive)
GI50 (EKVX): > 75 µM (inactive)
GI50 (LOX IMVI): > 75 µM (inactive)
GI50 (DU-145): > 75 µM (inactive)
GI50 (CAKI-1): > 75 µM (inactive)
GI50 (HL-60): 41.3 µM (inactive)
GI50 (UO-31): > 75 µM (inactive)
GI50 (SW-620): > 75 µM (inactive)

CC1(C)OC2COC(c3n[nH]c4c(=O)[nH]c(=O)[nH]c34)C2O1 (stereo not drawn)
GI50 (M14): > 100 µM (inactive)
GI50 (SN12C): > 100 µM (inactive)
GI50 (RXF 393): > 100 µM (inactive)
GI50 (SK-OV-3): > 100 µM (inactive)
GI50 (Hs-578T): > 100 µM (inactive)
GI50 (COLO 205): > 100 µM (inactive)
GI50 (SF-539): > 100 µM (inactive)
GI50 (HOP-62): > 100 µM (inactive)
GI50 (T47D): > 100 µM (inactive)
GI50 (SF-268): > 100 µM (inactive)
GI50 (NCI-H460): > 100 µM (inactive)
GI50 (OVCAR-5): > 100 µM (inactive)
GI50 (EKVX): > 100 µM (inactive)
GI50 (LOX IMVI): > 100 µM (inactive)
GI50 (DU-145): > 100 µM (inactive)
GI50 (CAKI-1): > 100 µM (inactive)
GI50 (HL-60): > 100 µM (inactive)
GI50 (UO-31): > 100 µM (inactive)
GI50 (SW-620): > 100 µM (inactive)

Cc1nn(-c2ccccc2)c2c1C(c1ccc(Cl)cc1)NC(=S)N2 (stereo not drawn)
GI50 (M14): 21.9 µM (inactive)
GI50 (SN12C): 19.1 µM (inactive)
GI50 (RXF 393): 15.7 µM (inactive)
GI50 (SK-OV-3): 22.9 µM (inactive)
GI50 (Hs-578T): 29 µM (inactive)
GI50 (COLO 205): 17.2 µM (inactive)
GI50 (SF-539): 18.5 µM (inactive)
GI50 (HOP-62): 16.1 µM (inactive)
GI50 (T47D): > 100 µM (inactive)
GI50 (SF-268): 25.8 µM (inactive)
GI50 (NCI-H460): 23 µM (inactive)
GI50 (OVCAR-5): 27.5 µM (inactive)
GI50 (EKVX): 25.8 µM (inactive)
GI50 (LOX IMVI): 16.3 µM (inactive)
GI50 (DU-145): 88.9 µM (inactive)
GI50 (CAKI-1): 27.2 µM (inactive)
GI50 (HL-60): 31.9 µM (inactive)
GI50 (UO-31): 15 µM (inactive)
GI50 (SW-620): 23 µM (inactive)

O=C(Cn1ccc(=O)[nH]c1=O)Nc1ccc(C(=O)O)c(O)c1
GI50 (M14): > 100 µM (inactive)
GI50 (SN12C): > 100 µM (inactive)
GI50 (RXF 393): > 100 µM (inactive)
GI50 (SK-OV-3): < 0.01 µM (active)
GI50 (Hs-578T): > 100 µM (inactive)
GI50 (COLO 205): > 100 µM (inactive)
GI50 (HOP-62): 26.2 µM (inactive)
GI50 (T47D): > 100 µM (inactive)
GI50 (SF-268): > 100 µM (inactive)
GI50 (NCI-H460): > 100 µM (inactive)
GI50 (OVCAR-5): > 100 µM (inactive)
GI50 (EKVX): > 100 µM (inactive)
GI50 (LOX IMVI): > 100 µM (inactive)
GI50 (DU-145): > 100 µM (inactive)
GI50 (CAKI-1): > 100 µM (inactive)
GI50 (HL-60): > 100 µM (inactive)
GI50 (UO-31): > 100 µM (inactive)
GI50 (SW-620): > 100 µM (inactive)
